Where a name gives a salt, the structure may show the parent alone. Read-outs that look alike come from different tables or passages of the source.
Assays:
[1] = target: T1, human central type cannabinoid receptor (hCB1) (Homo sapiens, UniProt P21554); assay: Binding assay (in vitro), [3H]Win55212-2 displacement, membrane fractions of human CB1-CHO; conditions: hCB1 expressed in CHO cells, [3H]Win55212-2 2 nM, 30° C. 90 minutes
T1 construct: expressed in transfected cells; host or cells: CHO cells
T1 sequence (P21554 whole entry): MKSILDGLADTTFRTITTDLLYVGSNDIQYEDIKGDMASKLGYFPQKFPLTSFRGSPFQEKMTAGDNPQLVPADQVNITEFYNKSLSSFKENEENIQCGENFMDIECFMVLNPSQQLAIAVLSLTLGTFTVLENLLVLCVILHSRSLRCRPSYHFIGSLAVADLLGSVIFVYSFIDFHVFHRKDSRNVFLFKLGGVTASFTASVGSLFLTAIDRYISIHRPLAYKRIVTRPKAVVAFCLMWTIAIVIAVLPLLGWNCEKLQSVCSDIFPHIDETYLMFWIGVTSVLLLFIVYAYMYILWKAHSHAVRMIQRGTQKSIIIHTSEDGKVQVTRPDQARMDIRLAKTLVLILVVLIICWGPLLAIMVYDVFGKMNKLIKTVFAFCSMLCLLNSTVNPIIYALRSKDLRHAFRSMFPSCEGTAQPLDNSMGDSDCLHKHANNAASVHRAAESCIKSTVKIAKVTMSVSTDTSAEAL
Procedure: (§1) Membrane fractions of human central type cannabinoid receptor (human CB1-CHO, hereinafter called hCB1) and human peripheral type cannabinoid receptor (human CB2-CHO, hereinafter called hCB2) expressed in CHO cells were used as samples. The reference material (hCB1: 20 μg/ml, hCB2: 5 μg/ml), labeled ligand ([^3H]Win55212-2, 2 nM) and unlabeled ligand Win55212-2 or test compound were added to a 24-well round bottom plate, and the plate was incubated at 30° C. for 90 minutes. 50 mM Tris-HB55 containing 0.2% BSA was used as an assay buffer. After incubation, the mixture was filtered (Packard, Unifilter 24GF/B) and dried, and then a scintillation solution (Packard, Microsint-20) was added thereto to determine the radioactivity of the sample (Packard, Top count A9912V). Nonspecific binding was determined by the addition of excessive amount of Win55212-2 (10 μM), and specific binding was calculated by subtracting the nonspecific binding from total binding determined by the addition of the labeled ligand only. The test compound was dissolved in DMSO to make the final concentration in DMSO to be 0.1%. IC50 value was determined from the proportion of the bound test compound in the specific binding, and K1 value of the test compound was calculated from the ICso value and Kd value of [^3H]Win55212-2. K1 value for the central type receptors/K1 value for peripheral type receptors (C/S) was also calculated as an indicator of the selectivity of the test compound for peripheral type receptors.

[2] = target: T2, human peripheral type cannabinoid receptor (hCB2) (Homo sapiens, UniProt P34972); assay: Binding assay (in vitro), [3H]Win55212-2 displacement, membrane fractions of human CB2-CHO; conditions: for Ki: hCB2 expressed in CHO cells, [3H]Win55212-2 2 nM, 30° C. 90 minutes; for C/S (Ki central type receptors / Ki peripheral type receptors): indicator of selectivity for peripheral type receptors
T2 construct: expressed in transfected cells; host or cells: CHO cells
T2 sequence (P34972 whole entry): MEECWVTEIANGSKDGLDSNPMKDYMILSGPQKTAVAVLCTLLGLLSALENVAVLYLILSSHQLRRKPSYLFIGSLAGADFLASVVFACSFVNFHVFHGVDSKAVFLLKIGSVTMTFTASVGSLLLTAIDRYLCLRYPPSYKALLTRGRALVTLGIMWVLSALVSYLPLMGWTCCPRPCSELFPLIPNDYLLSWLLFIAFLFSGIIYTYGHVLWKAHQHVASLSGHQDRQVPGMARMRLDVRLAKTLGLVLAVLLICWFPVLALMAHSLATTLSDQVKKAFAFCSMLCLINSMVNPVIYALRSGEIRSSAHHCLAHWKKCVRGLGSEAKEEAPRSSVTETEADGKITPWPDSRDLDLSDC
Procedure: as §1

[3] = test system: carrageenin-induced paw edema; assay: Carrageenin-induced paw edema model (in vivo); design: species or system C57BL/6J mice; conditions: mice, oral in olive oil 1 hour before carrageenin, paw volume 3 hours later
Procedure: [2] Carrageenin-induced paw edema model (in vivo)
C57BL/6J mice (6 to 8 weeks of age) were used. […] After one hour of the administration, 50 μl of 1% solution of carrageenin in normal saline was administered intradermally at foot pad of the right hind paw. Three hours later, the volume of the right hind paw was measured and compared with the initial volume.

[4] = read-out: Ki value Central type receptor (C)
[5] = read-out: Ki value Peripheral type receptor (S)
[6] = Ki value Central type receptor (C)
[7] = Ki value Peripheral type receptor (S)

Structure (SMILES)	Ki [1, 4]	Ki [2, 5]	C/S (Ki central type receptors / Ki peripheral type receptors) [2]	ED60 [3]	Ki [1, 6]	Ki [2, 7]	ED50 [3]	C/S (Ki central type receptors / Ki peripheral type receptors) ([2]; hydrochloride)
CCCOc1c(OC)ccc2cc(C(=O)NCCc3ccc(F)cc3)c(=O)[nH]c12 [Example 3-27, 7-methoxy-2-oxo-8-propoxy-1,2-dihydroquinoline-3-carboxylic acid [2-(4-fluorophenyl)ethyl]amide]	336 nM	0.021 nM	15990	0.53 mg/kg; p.o.	–	–	–	–
CCCCCOc1c(OC)ccc2cc(C(=O)NCCc3ccc(Cl)cc3)c(=O)[nH]c12 [Example 3-22, 7-methoxy-2-oxo-8-pentyloxy-1,2-dihydroquinoline-3-carboxylic acid [2-(4-chlorophenyl)ethyl]amide]	–	–	675	–	135 nM	0.2 nM	0.76 mg/kg; p.o.	–
CCCCOc1c(OC)ccc2cc(C(=O)NCCc3ccncc3)c(=O)[nH]c12 [Example 3-17, 8-butoxy-7-methoxy-2-oxo-1,2-dihydroquinoline-3-carboxylic acid (2-pyridine-4-ylethyl)amide hydrochloride]	199 nM	–	–	–	–	0.23 nM	1.39 mg/kg; p.o.	867
CCCCCOc1c(OC)ccc2cc(C(=O)NCCN3CCOCC3)c(=O)[nH]c12 [Example 3-11, 7-methoxy-2-oxo-8-pentyloxy-1,2-dihydroquinoline-3-carboxylic acid (2-morpholinoethyl)amide]	–	–	–	–	–	–	0.40 mg/kg; p.o.	–
CCCCOc1c(OC)ccc2cc(C(=O)NCCc3ccc(F)cc3)c(=O)[nH]c12 [Example 3-15, 8-butoxy-7-methoxy-2-oxo-1,2-dihydroquinoline-3-carboxylic acid [2-(4-fluorophenyl)ethyl]amide]	249 nM	–	15580	–	–	0.016 nM	0.41 mg/kg; p.o.	–
CCCCCOc1c(OC)ccc2cc(C(=O)NCc3ccc(F)cc3)c(=O)n(C)c12 [Example 3-40, 1-methyl-7-methoxy-2-oxo-8-pentyloxy-1,2-dihydroquinoline-3-carboxylic acid (4-fluorobenzyl)amide]	703 nM	–	330	1.19 mg/kg; p.o.	–	2.13 nM	–	–
CCCOc1c(OC)ccc2cc(C(=O)NCCc3ccccc3)c(=O)[nH]c12 [Example 3-30, 7-methoxy-2-oxo-8-propoxy-1,2-dihydroquinoline-3-carboxylic acid (2-phenylethyl)amide]	–	–	1862	0.49 mg/kg; p.o.	–	0.09 nM	–	–
CCCCCOc1c(OC)ccc2cc(C(=O)NCCN3CCOCC3)c(=O)n(C)c12 [Example 3-38, 1-methyl-7-methoxy-2-oxo-8-pentyloxy-1,2-dihydroquinoline-3-carboxylic acid (2-morpholinoethyl) amide]	935 nM	–	11002	2.24 mg/kg; p.o.	–	0.085 nM	–	–
CCCOc1c(OC)ccc2cc(C(=O)NCCc3ccncc3)c(=O)[nH]c12 [Example 3-26, 7-methoxy-2-oxo-8-propoxy-1,2-dihydroquinoline-3-carboxylic acid (2-pyridine-4-ylethyl)amide]	648 nM	0.23 nM	2817	1.32 mg/kg; p.o.	–	–	–	–
CCCCCOc1cc2cc(C(=O)NCCc3ccc(F)cc3)c(=O)n(C)c2cc1OC [Example 3-43, 1-methyl-7-methoxy-2-oxo-6-pentyloxy-1,2-dihydroquinoline-3-carboxylic acid [2-(4-fluorophenyl)ethyl]amide]	864 nM	–	20093	–	–	0.043 nM	–	–
CCCCCOc1cc2cc(C(=O)OC)c(=O)[nH]c2cc1OC [Example 1-2, 7-methoxy-2-oxo-6-pentyloxy-1,2-dihydroquinoline-3-carboxylic acid methyl ester]	3670 nM	–	262202	–	–	0.014 nM	–	–
CCCCCOc1c(OC)ccc2cc(C(=O)NCc3ccncc3)c(=O)[nH]c12 [Example 3-9, 7-methoxy-2-oxo-8-pentyloxy-1,2-dihydroquinoline-3-carboxylic acid (4-pyridyl methyl)amide]	–	–	–	–	–	–	0.58 mg/kg; p.o.	–
CCOc1c(OC)ccc2cc(C(=O)NCc3ccc4c(c3)OCO4)c(=O)[nH]c12 [Example 3-35, 8-ethoxy-7-methoxy-2-oxo-1,2-dihydroquinoline-3-carboxylic acid (3,4-methylenedioxybenzyl) amide]	409 nM	–	7713	–	–	0.053 nM	–	–
CCCCCOc1c(OC)ccc2cc(C(=O)NCCc3ccccc3F)c(=O)[nH]c12 [Example 3-19, 7-methoxy-2-oxo-8-pentyloxy-1,2-dihydroquinoline-3-carboxylic acid [2-(2-fluorophenyl)ethyl]amide]	–	–	272	–	49 nM	0.18 nM	–	–
CCOc1c(OC)ccc2cc(CN(C)C)c(=O)[nH]c12 [Example 7-1, 3-dimethyl aminomethyl-8-ethoxy-7-methoxy-2-oxo-1,2-dihydroquinoline]	3640 nM	0.17 nM	21432	–	–	–	–	–
CCCCCOc1c(OC)ccc2cc(C(=O)NCc3ccc4c(c3)OCO4)c(=O)n(C)c12 [Example 3-42, 1-methyl-7-methoxy-2-oxo-8-pentyloxy-1,2-dihydroquinoline-3-carboxylic acid (3,4-methylenedioxybenzyl) amide]	315 nM	–	1430	–	–	0.22 nM	–	–
CCCCCOc1c(OC)ccc2cc(C(=O)NCCc3ccncc3)c(=O)n(C)c12 [Example 3-37, 1-methyl-7-methoxy-2-oxo-8-pentyloxy-1,2-dihydroquinoline-3-carboxylic acid (2-pyridine-4-ylethyl)amide]	–	–	104	0.63 mg/kg; p.o.	78 nM	0.75 nM	–	–
CCCCCOc1cc2cc(C(=O)O)c(=O)n(C)c2cc1OC [Example 2-7, 1-methyl-7-methoxy-2-oxo-6-pentyloxy-1,2-dihydroquinoline-3-carboxylic acid]	381 nM	–	908	–	–	0.42 nM	–	–
COc1ccc2cc(C(=O)NCCc3ccc(F)cc3)c(=O)[nH]c2c1OC [Example 3-31, 7,8-dimethoxy-2-oxo-1,2-dihydroquinoline-3-carboxylic acid [2-(4-fluorophenyl)ethyl]amide]	159 nM	0.16 nM	995	–	–	–	–	–
CCCCOc1c(OC)ccc2cc(CNC(=O)Nc3ccc(F)cc3)c(=O)[nH]c12 [Example 8-1, N-[(8-butoxy-7-methoxy-2-oxo-1,2-dihydroquinoline-3-yl)methyl]-N′-(4-fluorophenyl)urea]	440 nM	0.44 nM	1000	–	–	–	–	–
CCCCCOc1c(OC)ccc2cc(C(=O)NCCc3ccc(O)cc3)c(=O)[nH]c12 [Example 3-7, 7-methoxy-2-oxo-8-pentyloxy-1,2-dihydroquinoline-3-carboxylic acid [2-(4-hydroxyphenyl)ethyl]amide]	–	–	150	–	72 nM	0.48 nM	–	–
CCCCOc1c(OC)ccc2cc(C(=O)O)c(=O)[nH]c12 [Example 2-2, 8-butoxy-7-methoxy-2-oxo-1,2-dihydroquinoline-3-carboxylic acid]	3250 nM	0.77 nM	42172	–	–	–	–	–
CCCCCOc1c(OC)ccc2cc(C(=O)NCCc3ccccc3)c(=O)[nH]c12 [Example 3-23, 7-methoxy-2-oxo-8-pentyloxy-1,2-dihydroquinoline-3-carboxylic acid (2-phenylethyl)amide]	39 nM	0.2 nM	194	–	–	–	–	–
CCCCCOc1c(OC)ccc2cc(C(=O)NCc3ccc4c(c3)OCO4)c(=O)[nH]c12 [Example 3-5, 7-Methoxy-2-oxo-8-pentyloxy-1,2-dihydroquinoline-3-carboxylic acid (3,4-methylenedioxybenzyl)amide]	3440 nM	–	–	–	–	–	<0.10 mg/kg; p.o.	–
CCCCCOc1c(OC)ccc2cc(C(=O)O)c(=O)n(C)c12 [Example 2-6, 1-methyl-7-methoxy-2-oxo-8-pentyloxy-1,2-dihydroquinoline-3-carboxylic acid]	770 nM	–	5923	–	–	0.13 nM	–	–
CCCCCOc1cc2cc(C(=O)NCc3ccc4c(c3)OCO4)c(=O)[nH]c2cc1OC [Example 3-33, 7-methoxy-2-oxo-6-pentyloxy-1,2-dihydroquinoline-3-carboxylic acid (3,4-methylenedioxybenzyl)amide]	273 nM	–	258	–	–	1.06 nM	–	–
CCOc1c(OC)ccc2cc(COC(=O)Nc3ccncc3)c(=O)[nH]c12 [Example 6-2, N-pyridine-4-ylcarbamic acid (8-ethoxy-7-methoxy-2-oxo-1,2-dihydroquinoline-3-yl)methyl ester]	437 nM	0.034 nM	12866	–	–	–	–	–

— patent US6806276B2, “2-oxoquinoline compounds and pharmaceutical uses thereof” (Japan Tobacco Inc., priority 1999, dated 2004)
